Consider 20 compounds from patent US5512561A, “Aryl substituted dibenzoxazepine compounds, pharmaceutical compositions and methods of use” (G. D. Searle & Co., priority 1995, dated 1996).

Counter-ions that a name gives are not always drawn.

Assay [1] has as its system prostaglandin E2 -induced contractions of segments of guinea pig ileum. The experiment in a line: Prostaglandin (PGE) Antagonism Assay in guinea pig ileum. In kind it is cell-based. The settings on record: dose ratio of EC50 doses of prostaglandin E2; initial test compound concentration 3 micromolar; 37° C. As to the method:
In order to determine the effectiveness of several of the compounds of the present invention ("test compounds") as prostaglandin E2 antagonists,a prostaglandin antagonism assay was conducted, as described below, to determine the ability of these compounds to inhibit prostaglandin E2 -induced contractions of segments of guinea pig ileum. […] Male albino guinea pigs weighing 200 to 500 grams were sacrificed by cervical dislocation. The ilea were then quickly removed from the guinea pigs and placed in a modified Tyrode solution, a solution which is known to those skilled in the art, containing one-half of the usual amount of magnesium ions. Segments of ileum about 2 cm long were then cut and mounted in a 10-mL tissue bath containing the modified Tyrode solution. […] Data for a control prostaglandin E2 dose response curve plotting concentration of prostaglandin E2 versus the intensity of contractions, detected isotonically, was then obtained by experimentally adjusting the dose of the prostaglandin E2 being injected into the tissue bath, in a manner known by those of skill in the art. Solutions or suspensions containing an initial concentration (3 micromolar) of a test compound in modified Tyrode solution ("test solutions/suspensions") were then separately substituted for the control bath solution. Each test solution/suspension was then kept in constant contact with the ileum tissue, except for brief periods to drain the bath in preparation for rinsing with fresh test solution/suspension. A second prostaglandin E2 dose response curve was then generated for prostaglandin E2 in the presence of a test compound. A dose ratio of EC50 doses was then calculated from the results of each test in a manner known by those of skill in the art.

Another assay relates to mice. Nature of the assay: Writhing Assay (PBQ-induced writhing, analgesia in mice). It is filed as in vivo, mice (Charles River male albino). Particulars: Mus musculus, po, 25 min, intragastric, PBQ i.p. 25 minutes later, writhes <= one-half the median of saline control; for responders at 10 mg/kg: 10 mg per kilogram, read-out: WRITHING ASSAY Number Out of Nine or Ten (mice in which test compound produced analgesia); for responders at 30 mg/kg: 30 mg per kilogram, read-out: WRITHING ASSAY Number Out of Nine or Ten (mice in which test compound produced analgesia) (converted). From the text: The Writhing Assay is one of the most widely-used experimental procedures for measuring the analgesic activity of different narcotic and nonnarcotic analgesic agents, and involves the continuous, chemically-induced pain of visceral origin to an animal, such as a mouse or rat. Gyires et al., Arch. int. […] Vander Wende et al., Fed. […] Chemicals which may be used to induce this pain include phenylbenzoquinone (PBQ) and acetic acid. As a result of the chemical irritation to the animal, a characteristic stretching and writhing of the animal (dorsiflexion of the animal's back, extension of its hindlimbs and the strong contraction of its abdominal musculature) will generally occur. […] Drugs which reduce the number of writhes of the animal appear to restore the normal nociceptive threshold of the animal.
Charles River male albino mice, weighing 20 to 30 grams were used in this assay.
Ten mice which were given saline in place of a test compound of the invention were used as a control group.
Five minutes later, each mouse was individually placed into a glass beaker for observation, and the number of writhes occurring during the following ten-minute period was counted.
On the technique in general: In writhing tests, fewer writhes than in controls are read as antinociception.

As to `O=C(NCc1ccncc1)c1ccc(C(=O)N2Cc3ccccc3Oc3ccc(Cl)cc32)cc1` [Example 9, 4-(8-chlorodibenzb,f! 1,4!oxazepin-10(11H)-yl)carbonyl!-N-(4-pyridinylmethyl)benzamide, hydrochloride], the “PGE ANTAGONISM IN GUINEA PIG ILEUM Dose Ratio (DR)” value in assay [1] stood at 2.29. The responders at 10 mg/kg in the assay on mice was determined as 80%. In the case of `O=C(NCc1ccccn1)c1cccc(C(=O)N2Cc3ccccc3Oc3ccc(Cl)cc32)n1` [Example 32, 6-(8-chlorodibenzb,f! 1,4!oxazepin-10(11H)yl)carbonyl!-N,(2-pyridinylmethyl)-2-pyridinecarboxamide, hydrochloride], the “PGE ANTAGONISM IN GUINEA PIG ILEUM Dose Ratio (DR)” value in assay [1] came out at 0.63. The responders at 30 mg/kg with mice was 30%.

Regarding `O=C(NCc1ccncc1)c1ccccc1C(=O)N1Cc2ccccc2Oc2ccc(Cl)cc21` [Example 12, 2-(8-chlorodibenzb,f! 1,4!oxazepin-10(11H)yl)carbonyl!-N-(4-pyridinylmethyl)benzamide, hydrochloride], the “PGE ANTAGONISM IN GUINEA PIG ILEUM Dose Ratio (DR)” value in assay [1] is 4.23. Further, the responders at 30 mg/kg in the assay with mice was 33.3%. For the compound `O=C(NCc1ccncc1)c1cccc(C(=O)N2Cc3ccccc3Oc3ccc(Cl)cc32)n1` [Example 30, 6-(8-chlorodibenzb,f! 1,4!oxazepin-10(11H)yl)carbonyl!-N-(4-pyridinylmethyl)-2-pyridinecarboxamide, hydrochloride], the “PGE ANTAGONISM IN GUINEA PIG ILEUM Dose Ratio (DR)” value in assay [1] was 0.81. Besides, the responders at 30 mg/kg with mice was 70%. `O=C(NCc1cccnc1)c1ccccc1C(=O)N1Cc2ccccc2Oc2ccc(Cl)cc21` [Example 13, 2-(8-chlorodibenzb,f! 1,4!oxazepin-10 f 11H)yl)carbonyl!-N-(3-pyridinylmethyl)benzamide, hydrochloride]: in assay [1], the “PGE ANTAGONISM IN GUINEA PIG ILEUM Dose Ratio (DR)” value was 1.10. In addition, the responders at 30 mg/kg with mice is 50%. In the same order, the values of `O=C(NCc1cccnc1)c1cccc(C(=O)N2Cc3ccccc3Oc3ccc(Cl)cc32)c1` [Example 17, 3-(8-chlorodibenzb,f! 1,4!oxazepin-10(11H!yl!carbonyl!-N-(3-pyridinylmethyl)benzamide, monohydrochloride] are 66.0 and 50%. Consider `O=C(NCc1ccccn1)c1ccc(CN2Cc3ccccc3Oc3ccc(Cl)cc32)cn1` [Example 36, 5-(8-chlorodibenzb,f! 1,4!oxazepin-10(11H)yl)methyl!-N-(2-pyridinylmethyl!-2-pyridinecarboxamide, monohydrochloride], for which, in assay [1], the “PGE ANTAGONISM IN GUINEA PIG ILEUM Dose Ratio (DR)” value is 2.6. In addition, in the assay with mice, the responders at 30 mg/kg was 77.8%. In the same order, the values of `O=C(NCc1cccnc1)c1ccc(C(=O)N2Cc3ccccc3Oc3ccc(Cl)cc32)cc1` [Example 10, 4-(8-chlorodibenzb,f! 1,4!oxazepin-10(11H)yl)carbonyl!-N-f3,pyridinylmethyl)benzamide, hydrochloride] are 3.2 and 40%. In the case of `O=C(NCc1cccnc1)c1ccc(CN2Cc3ccccc3Oc3ccc(Cl)cc32)cn1` [Example 35, 5-(8-chlorodibenzb,f! 1,4!oxazepin-10(11H)yl)methyl!-N-(3-pyridinylmethyl)-2-pyridinecarboxamide, monohydrochloride], the responders at 30 mg/kg with mice was 70%. Regarding `O=C(NCc1ccccn1)c1cccc(C(=O)N2Cc3ccccc3Oc3ccc(Cl)cc32)c1` [Example 18, 3-(8-chlorodibenzb,f! 1,4!oxazepin-10(11H)yl)carbonyl!-N-(2-pyridinylmethyl!benzamide, hydrochloride], the “PGE ANTAGONISM IN GUINEA PIG ILEUM Dose Ratio (DR)” value in assay [1] came to 114. Moreover, the responders at 30 mg/kg with mice is 70%. In the same order, the values of `O=C(NCc1cccnc1)c1ccc(S(=O)(=O)N2Cc3ccccc3Oc3ccc(Cl)cc32)cc1` [Example 5, 4-(8-chlorodibenzb,f! 1,4!oxazepin-10(11H)yl) sulfonyl!-N-(3-pyridinylmethyl)benzamide, monohydrochloride] are 4.4 and 30%. For the compound `O=S(=O)(c1ccc(CCc2ccncc2)cc1)N1Cc2ccccc2Oc2ccc(Cl)cc21` [Example 3, 8-chloro-10,11-dihydro-10-4-2-(4-pyridinyl)ethyl!phenyl!sulfonyl!dibenzb,f! 1,4!oxazepine, monohydrochloride], in assay [1], the “PGE ANTAGONISM IN GUINEA PIG ILEUM Dose Ratio (DR)” value is given as 1.0. The responders at 30 mg/kg in the assay on mice was 50%. The matching figures for `O=C(NCc1ccccn1)c1ccc(CN2Cc3ccccc3Oc3ccc(Cl)cc32)cc1` [Example 29, 4-(8-chlorodibenz E b,f! 1,4!oxazepin-10(11H)yl)methyl!-N-(2-pyridinylmethyl)benzamide, hydrochloride]: 10.4 and 50%. In the same order, the values of `O=C(NCc1cccnc1)c1ccc(CN2Cc3ccccc3Oc3ccc(Cl)cc32)cc1` [Example 28, 4-(8-chlorodibenzb,f! 1,4!oxazepin-10(11H)yl)methyl!-N-(3-pyridinylmethyl)benzamide, hydrochloride] are 3.59 and 60%.

Regarding `O=C(c1ccc(CCc2ccncc2)cc1)N1Cc2ccccc2Oc2ccc(Cl)cc21` [Example 8, Compound F, 8-chloro-10,11-dihydro-10-4-2-(4-pyridinyl)ethyl!benzoyl!dibenz b,f! 1,4! oxazepine, hydrochloride], the “PGE ANTAGONISM IN GUINEA PIG ILEUM Dose Ratio (DR)” value in assay [1] was 1.1. For the same compound, in the assay on mice, the responders at 10 mg/kg was found to be 90%. For `O=C(NCc1ccccn1)c1ccccc1C(=O)N1Cc2ccccc2Oc2ccc(Cl)cc21` [Example 14, 2-(8-chlorodibenzb,f! 1,4!oxazepin-10(11H)-yl) carbonyl!-N-(2-pyridinylmethyl!benzamide, dihydrochloride], the “PGE ANTAGONISM IN GUINEA PIG ILEUM Dose Ratio (DR)” value in assay [1] turned out to be 4.07. For the same compound, the responders at 30 mg/kg in the assay on mice is 30%. For `O=C(NCc1ccncc1)c1ccc(S(=O)(=O)N2Cc3ccccc3Oc3ccc(Cl)cc32)cc1` [Example 4, 4-(8-chlorodibenzb,f! 1,4!oxazepin-10(11H)yl)sulfonyl!-N-(4-pyridinylmethyl)benzamide, monohydrochloride], the responders at 30 mg/kg with mice is 60%.

Consider `O=C(NCc1cccnc1)c1cccc(C(=O)N2Cc3ccccc3Oc3ccc(Cl)cc32)n1` [Example 31, 6-(8-chlorodibenzb,f! 1,4!oxazepin-10(11H)yl)carbonyl!-N-(3-pyridinylmethyl)-2-pyridinecarboxamide, hydrochloride], for which the “PGE ANTAGONISM IN GUINEA PIG ILEUM Dose Ratio (DR)” value in assay [1] was found to be 1.70. The responders at 30 mg/kg with mice is 60%. In the same order, the values of `O=C(NCc1ccncc1)c1ccc(CN2Cc3ccccc3Oc3ccc(Cl)cc32)cc1` [Example 27, 4-(8-chlorodibenzb,f! 1,4!oxazepin-10(11H)yl)methyl!-N-(4-pyridinylmethyl)benzamide, hydrochloride] are 22.7 and 50%.

In the case of `O=C(c1ccc(/C=C\c2ccncc2)cc1)N1Cc2ccccc2Oc2ccc(Cl)cc21` [Example 8, Compound E, 8-chloro-10,11-dihydro-10-4-2Z-(4-pyridinyl)ethenyl!benzoyl!dibenz b,f! 1 ,4!oxazepine, hydrochloride], the “PGE ANTAGONISM IN GUINEA PIG ILEUM Dose Ratio (DR)” value in assay [1] turned out to be 4.8. Besides, in the assay on mice, the responders at 10 mg/kg stood at 90%.
